# Article PMC11165448, “Biocatalytic Heteroaromatic Amide Formation in Water Enabled by a Catalytic Tetrad and Two Access Tunnels” (ACS Catalysis, 2024)
# Molecular target: T1, acyltransferase from M. smegmatis (MsAcT) (Mycolicibacterium smegmatis, UniProt A0R5U7)
# T1 construct: gene MSMEG_6317; His6-tagged, expressed in Escherichia coli, cell-free extract
# Assay: amide formation screen with cell-free extract
# Assay type: cell-based
# Conditions: co-substrate benzylamine 20 mM; ester 20 mM; buffer, 30 C
# T1 sequence (A0R5U7 entry or part of it): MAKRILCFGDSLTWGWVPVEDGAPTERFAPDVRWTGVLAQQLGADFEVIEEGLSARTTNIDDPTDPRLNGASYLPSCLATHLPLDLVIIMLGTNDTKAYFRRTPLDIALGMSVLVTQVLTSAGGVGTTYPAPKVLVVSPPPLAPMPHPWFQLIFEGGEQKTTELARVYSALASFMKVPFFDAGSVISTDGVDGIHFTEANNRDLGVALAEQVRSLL
smiles,measurement,value
"CCOC(=O)c1ccco1 [1e, ethyl 2-furoate]",amide formation screen with cell-free extract,MsAcT and variants displayed activity with ethyl 2-furoate 1e
